Data: ChEMBL document CHEMBL4433219, “EC18 as a Tool To Understand the Role of HCN4 Channels in Mediating Hyperpolarization-Activated Current in Tissues” (ACS Med Chem Lett, 2019)

Molecular target: T1, Potassium/sodium hyperpolarization-activated cyclic nucleotide-gated channel 4 (Homo sapiens) (UniProt Q9Y3Q4)
T1 sequence (whole entry): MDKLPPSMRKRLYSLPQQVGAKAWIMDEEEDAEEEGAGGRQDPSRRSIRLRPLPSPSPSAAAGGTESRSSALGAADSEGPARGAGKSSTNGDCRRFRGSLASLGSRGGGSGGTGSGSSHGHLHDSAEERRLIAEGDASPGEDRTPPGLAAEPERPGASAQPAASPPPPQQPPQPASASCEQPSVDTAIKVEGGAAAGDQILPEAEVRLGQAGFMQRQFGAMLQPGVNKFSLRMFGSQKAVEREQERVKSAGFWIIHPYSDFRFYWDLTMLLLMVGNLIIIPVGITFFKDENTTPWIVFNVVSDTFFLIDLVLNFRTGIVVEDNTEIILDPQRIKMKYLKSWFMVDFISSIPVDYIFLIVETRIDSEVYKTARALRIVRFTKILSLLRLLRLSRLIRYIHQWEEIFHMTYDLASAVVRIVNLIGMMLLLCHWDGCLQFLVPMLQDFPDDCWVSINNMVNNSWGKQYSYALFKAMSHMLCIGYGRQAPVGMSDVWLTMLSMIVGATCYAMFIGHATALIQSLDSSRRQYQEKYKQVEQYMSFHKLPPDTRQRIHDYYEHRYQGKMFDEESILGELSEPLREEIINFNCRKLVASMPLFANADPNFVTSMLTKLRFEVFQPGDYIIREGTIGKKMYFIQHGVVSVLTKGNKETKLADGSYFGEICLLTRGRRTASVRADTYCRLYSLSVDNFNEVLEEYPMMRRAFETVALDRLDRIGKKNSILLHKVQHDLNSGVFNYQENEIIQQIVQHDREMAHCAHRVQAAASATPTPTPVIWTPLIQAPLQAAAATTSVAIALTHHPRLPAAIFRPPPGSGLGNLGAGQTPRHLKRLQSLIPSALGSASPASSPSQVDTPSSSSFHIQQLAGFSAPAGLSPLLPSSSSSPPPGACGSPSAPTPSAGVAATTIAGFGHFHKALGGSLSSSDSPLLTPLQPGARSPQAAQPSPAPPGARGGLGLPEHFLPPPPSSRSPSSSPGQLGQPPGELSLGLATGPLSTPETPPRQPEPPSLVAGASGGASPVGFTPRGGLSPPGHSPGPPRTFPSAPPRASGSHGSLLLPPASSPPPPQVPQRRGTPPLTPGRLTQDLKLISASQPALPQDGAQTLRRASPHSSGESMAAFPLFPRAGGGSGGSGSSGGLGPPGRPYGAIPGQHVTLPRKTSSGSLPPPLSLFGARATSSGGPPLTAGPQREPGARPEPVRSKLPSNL
Assay: Inhibition of human HCN4 expressed in HEK293 cells assessed as reduction in hyperpolarization activated current at 10 uM at holding potential of -80 mV by patch clamp assay relative to control
Type: cell-based

SMILES | inhibition [%]
COc1ccc(CCN(C)CCCN2CCc3cc(OC)c(OC)cc3CC2=O)cc1OC | 59

Molecular target: T1, Potassium/sodium hyperpolarization-activated cyclic nucleotide-gated channel 4 (Homo sapiens)
Assay: Inhibition of human HCN4 expressed in HEK293 cells assessed as reduction in hyperpolarization activated current at 5 uM at holding potential of -80 mV by patch clamp assay relative to control
Type: cell-based

SMILES | inhibition [%]
COc1ccc(CCN(C)[C@@H]2CC=C[C@H](N3C=Cc4cc(OC)c(OC)cc4CC3=O)C2)cc1OC | 30
COc1ccc(CN(Cc2ccc(OC)c(OC)c2)[C@@H]2CCC[C@H](N3CCc4cc(OC)c(OC)cc4CC3=O)C2)cc1OC | 4
COc1ccc(OCCN(C)[C@@H]2CCC[C@H](N3CCc4cc(OC)c(OC)cc4CC3=O)C2)cc1OC | 48
COc1ccc(/C=C/CN(C)[C@@H]2CCC[C@H](N3CCc4cc(OC)c(OC)cc4CC3=O)C2)cc1OC (relative stereo) | 64
COc1ccc(CCCN(C)[C@@H]2CCC[C@H](N3CCc4cc(OC)c(OC)cc4CC3=O)C2)cc1OC (relative stereo) | 47
COc1ccc(CN(C)[C@@H]2CCC[C@H](N3CCc4cc(OC)c(OC)cc4CC3=O)C2)cc1OC (relative stereo) | 21
COc1ccc(CCN(C)C2CCCC(N3CCc4cc(OC)c(OC)cc4CC3=O)C2)cc1OC (single isomer, unassigned; (+)) | 46
COc1ccc(CCN(C)C2CCCC(N3CCc4cc(OC)c(OC)cc4CC3=O)C2)cc1OC (single isomer, unassigned; (-)) | 45
